{"source": "patent EP3521435A1", "about": "“A HIGH STRINGENCY SELECTION SYSTEM FOR PROTEIN EXPRESSION IN PROLINE-AUXOTROPHIC CELLS” (Bayer AG, priority 2018, dated 2019)", "tested_on": "CHO-K1 cells", "test": "Batch fermentation in shake flasks of human IgG1 expressing stable cell populations (Poros A-HPLC titer, viable cell density, viability)", "type": "cell-based, Chinese hamster", "settings": "pJF1576", "description": "To efficiently test the impact of different procedures on improving selection stringency, experimental testing in stable cell populations was performed. As test molecules, enhanced green fluorescent protein (GFP) as well as a human IgG1 were chosen. CHO-K1 cells adapted to growth in suspension in defined medium were obtained from SAFC and cultivated in EX-CELL CD CHO Fusion medium (SAFC 14365C). Custom-made EX-CELL CD CHO Fusion medium without L-Proline (Pro) and without L-Ornithine (Orn) (\"proline-free medium\") was obtained from SAFC. The expression vector system was based on modified versions of \"CET 1019 AS-puro-SceI\" and \"CET 1019 AD-puro-SceI\" for GFP and human IgG1, respectively, from Merck-Millipore, containing the Puromycin selection marker (Puromycin N-acetyl-transferase) known to exert a high selection stringency. To minimize variations in cell populations derived from using different transfections or different vectors, the first series of experiments were conducted using vectors into which a P5CS expression cassette was cloned upstream of a UCOE element, in addition to the Puromycin selection marker present downstream of a gene of interest. This way, it was possible to pool different transfections using the same vector to obtain a common starting point, and split the mixture according to different selection conditions, minimizing any variations that are not due to selection conditions themselves. Expression of long and short isoform of murine P5CS (Protein: Delta-1-pyrroline-5-carboxylate synthase; Gene: Aldh18a1; UniProtKB accession number: Q9Z110-1 & Q9Z110-2) was driven by a SV40 promoter. A SV40 polyadenylation sequence was used at the 3' end of the gene. More details can be found in Table 1. Typically, CHO cells were cultivated in EX-CELL CD CHO Fusion medium containing 6 mM GlutaMAX (Thermo Fisher, 35050-38) (\"CD-Fusion medium\") at 37 °C with 5% CO2. Cells were grown to logarithmic phase under shaking conditions for transfections. 1e7 cells/cuvette were transfected using nucleofection (Amaxa Nucleofector II, following the manufacturer's recommendations) with 5 µg of linearized DNA. After transfection, cells were taken up in 1 ml medium and transferred into 1 well of a 6 well microtiter plate (MTP) already containing 1 ml medium. The cells were incubated for 24 h without shaking, after which 9 ml medium were added and cells were washed (either in standard or proline-free medium). Multiple transfections were pooled, if applicable. Cells were adjusted to 2e5 viable cells/ml and 10 ml were transferred to T-25 flasks. Reference cell populations were selected using 10 µg/ml Puromycin in CD-Fusion medium. For P5CS-based selection, EX-CELL CD CHO Fusion medium (custom-made, SAFC) containing 6 mM GlutaMAX without proline and without ornithine was used (\"proline-free\" or \"CD-Fusion w/o Pro\" medium), with or without additional selection pressure.\nCell viability of the different populations was monitored over time. As soon as cell populations appeared to recover from selection pressure, cells were transferred to Shake Flask or TubeSpins for expansion in suspension under shaking conditions. Subsequently, stable cell populations transfected with IgG were seeded at 2e5 viable cells/ml for batch fermentation without selection pressure (i.e. standard CD-Fusion medium containing proline and no other selective agents). The cells were cultivated for 5-10 days, viable cell densities and productivity were monitored over time. IgG titers were determined using Poros A-HPLC method. Typically, final batch titers were recorded at a time point at which majority of cultures had around 70% viability. Stable cell populations transfected with GFP vector were subjected to analysis by flow cytometry using Guava easyCyte 8HT Benchtop Flow Cytometer (Millipore). 250 µl of cell culture were transferred to 96 MTP and washed with PBS. Dead cells were excluded from analysis using propidium iodide (PI). […]", "key": {"[1]": {"settings": "Day 2 after inoculation, selected in CD-Fusion w/o Pro + 0.05 mM DHP, non-selecting conditions"}, "[2]": {"settings": "Day 2 after inoculation, selected in CD-Fusion w/o Pro + 0.1 mM DHP, non-selecting conditions"}, "[3]": {"settings": "Day 2 after inoculation, selected in CD-Fusion w/o Pro + 0.2 mM DHP, non-selecting conditions"}, "[4]": {"settings": "Day 2 after inoculation, selected in CD-Fusion w/o Pro + 0.4 mM DHP, non-selecting conditions"}, "[5]": {"settings": "Day 3 after inoculation, selected in CD-Fusion w/o Pro + 0.05 mM DHP, selective conditions"}, "[6]": {"settings": "Day 3 after inoculation, selected in CD-Fusion w/o Pro + 0.1 mM DHP, selective conditions"}, "[7]": {"settings": "Day 3 after inoculation, selected in CD-Fusion w/o Pro + 0.2 mM DHP, selective conditions"}, "[8]": {"settings": "Day 3 after inoculation, selected in CD-Fusion w/o Pro + 0.4 mM DHP, selective conditions"}, "[9]": {"settings": "Day 4 after inoculation, selected in CD-Fusion w/o Pro + 0.05 mM DHP, non-selecting conditions"}, "[10]": {"settings": "Day 4 after inoculation, selected in CD-Fusion w/o Pro + 0.1 mM DHP, non-selecting conditions"}}, "data": [{"smiles": "O=C(O)[C@@H]1C=CCN1", "note": "[DHP, 3,4-Dehydro-L-Proline]", "values": [{"measurement": "titer improvements", "setting": "0.2 mM or 0.4 mM DHP as additional selection additives, human IgG1, non-selecting batch, #1 - #3 vs #6 & #7", "value": "2-3 fold"}, {"measurement": "titer improvements as compared to Puromycin-based selections", "setting": "DHP as additional selection agent in initial selections, human IgG1, batch under selective conditions", "value": "2-3 fold"}, {"measurement": "Viability profile", "setting": "Day 0 after inoculation, selected in CD-Fusion w/o Pro + 0.05 mM DHP, non-selecting conditions", "value": 99.4, "unit": "%"}, {"measurement": "Viability profile", "setting": "Day 0 after inoculation, selected in CD-Fusion w/o Pro + 0.05 mM DHP, selective conditions", "value": 98.4, "unit": "%"}, {"measurement": "Viability profile", "setting": "Day 0 after inoculation, selected in CD-Fusion w/o Pro + 0.1 mM DHP, non-selecting conditions", "value": 99.0, "unit": "%"}, {"measurement": "Viability profile", "setting": "Day 0 after inoculation, selected in CD-Fusion w/o Pro + 0.1 mM DHP, selective conditions", "value": 97.5, "unit": "%"}, {"measurement": "Viability profile", "setting": "Day 0 after inoculation, selected in CD-Fusion w/o Pro + 0.2 mM DHP, non-selecting conditions", "value": 98.6, "unit": "%"}, {"measurement": "Viability profile", "setting": "Day 0 after inoculation, selected in CD-Fusion w/o Pro + 0.2 mM DHP, selective conditions", "value": 98.2, "unit": "%"}, {"measurement": "Viability profile", "setting": "Day 0 after inoculation, selected in CD-Fusion w/o Pro + 0.4 mM DHP, non-selecting conditions", "value": 96.3, "unit": "%"}, {"measurement": "Viability profile", "setting": "Day 0 after inoculation, selected in CD-Fusion w/o Pro + 0.4 mM DHP, selective conditions", "value": 99.7, "unit": "%"}, {"measurement": "Productivity profile", "setting": "Day 2 after inoculation, human IgG1, selected in CD-Fusion w/o Pro + 0.05 mM DHP, non-selecting conditions", "value": 9.8, "unit": "mg/L"}, {"measurement": "Productivity profile", "setting": "Day 2 after inoculation, human IgG1, selected in CD-Fusion w/o Pro + 0.05 mM DHP, selective conditions", "value": 47.1, "unit": "mg/L"}, {"measurement": "Productivity profile", "setting": "Day 2 after inoculation, human IgG1, selected in CD-Fusion w/o Pro + 0.1 mM DHP, non-selecting conditions", "value": 11.0, "unit": "mg/L"}, {"measurement": "Productivity profile", "setting": "Day 2 after inoculation, human IgG1, selected in CD-Fusion w/o Pro + 0.1 mM DHP, selective conditions", "value": 37.5, "unit": "mg/L"}, {"measurement": "Productivity profile", "setting": "Day 2 after inoculation, human IgG1, selected in CD-Fusion w/o Pro + 0.2 mM DHP, non-selecting conditions", "value": 11.3, "unit": "mg/L"}, {"measurement": "Productivity profile", "setting": "Day 2 after inoculation, human IgG1, selected in CD-Fusion w/o Pro + 0.2 mM DHP, selective conditions", "value": 34.4, "unit": "mg/L"}, {"measurement": "Productivity profile", "setting": "Day 2 after inoculation, human IgG1, selected in CD-Fusion w/o Pro + 0.4 mM DHP, non-selecting conditions", "value": 11.3, "unit": "mg/L"}, {"measurement": "Productivity profile", "setting": "Day 2 after inoculation, human IgG1, selected in CD-Fusion w/o Pro + 0.4 mM DHP, selective conditions", "value": 39.4, "unit": "mg/L"}, {"measurement": "Viability profile", "setting": "[1]", "value": 98.9, "unit": "%"}, {"measurement": "Viable cell density profile", "setting": "[1]", "value": "6,1E+05 VCD/ml"}, {"measurement": "Viability profile", "setting": "[2]", "value": 99.3, "unit": "%"}, {"measurement": "Viable cell density profile", "setting": "[2]", "value": "7,9E+05 VCD/ml"}, {"measurement": "Viability profile", "setting": "[3]", "value": 99.2, "unit": "%"}, {"measurement": "Viable cell density profile", "setting": "[3]", "value": "6,4E+05 VCD/ml"}, {"measurement": "Viability profile", "setting": "[4]", "value": 99.3, "unit": "%"}, {"measurement": "Viable cell density profile", "setting": "[4]", "value": "8,0E+05 VCD/ml"}, {"measurement": "Viability profile", "setting": "[5]", "value": 99.3, "unit": "%"}, {"measurement": "Viable cell density profile", "setting": "[5]", "value": "5.6E+06", "unit": "VCD/ml"}, {"measurement": "Viability profile", "setting": "[6]", "value": 99.4, "unit": "%"}, {"measurement": "Viable cell density profile", "setting": "[6]", "value": "7.4E+06", "unit": "VCD/ml"}, {"measurement": "Viability profile", "setting": "[7]", "value": 99.1, "unit": "%"}, {"measurement": "Viable cell density profile", "setting": "[7]", "value": "2.4E+06", "unit": "VCD/ml"}, {"measurement": "Viability profile", "setting": "[8]", "value": 99.3, "unit": "%"}, {"measurement": "Viable cell density profile", "setting": "[8]", "value": "5.3E+06", "unit": "VCD/ml"}, {"measurement": "Productivity profile", "setting": "Day 4 after inoculation, human IgG1, selected in CD-Fusion w/o Pro + 0.05 mM DHP, non-selecting conditions", "value": 24.2, "unit": "mg/L"}, {"measurement": "Productivity profile", "setting": "Day 4 after inoculation, human IgG1, selected in CD-Fusion w/o Pro + 0.05 mM DHP, selective conditions", "value": 114.8, "unit": "mg/L"}, {"measurement": "Productivity profile", "setting": "Day 4 after inoculation, human IgG1, selected in CD-Fusion w/o Pro + 0.1 mM DHP, non-selecting conditions", "value": 31.7, "unit": "mg/L"}, {"measurement": "Productivity profile", "setting": "Day 4 after inoculation, human IgG1, selected in CD-Fusion w/o Pro + 0.1 mM DHP, selective conditions", "value": 83.8, "unit": "mg/L"}, {"measurement": "Productivity profile", "setting": "Day 4 after inoculation, human IgG1, selected in CD-Fusion w/o Pro + 0.2 mM DHP, non-selecting conditions", "value": 34.6, "unit": "mg/L"}, {"measurement": "Productivity profile", "setting": "Day 4 after inoculation, human IgG1, selected in CD-Fusion w/o Pro + 0.2 mM DHP, selective conditions", "value": 104.8, "unit": "mg/L"}, {"measurement": "Productivity profile", "setting": "Day 4 after inoculation, human IgG1, selected in CD-Fusion w/o Pro + 0.4 mM DHP, non-selecting conditions", "value": 41.0, "unit": "mg/L"}, {"measurement": "Productivity profile", "setting": "Day 4 after inoculation, human IgG1, selected in CD-Fusion w/o Pro + 0.4 mM DHP, selective conditions", "value": 105.5, "unit": "mg/L"}, {"measurement": "Viability profile", "setting": "[9]", "value": 99.8, "unit": "%"}, {"measurement": "Viable cell density profile", "setting": "[9]", "value": "5,3E+06 VCD/ml"}, {"measurement": "Viability profile", "setting": "[10]", "value": 99.7, "unit": "%"}, {"measurement": "Viable cell density profile", "setting": "[10]", "value": "6,5E+06 VCD/ml"}, {"measurement": "Viability profile", "setting": "Day 4 after inoculation, selected in CD-Fusion w/o Pro + 0.2 mM DHP, non-selecting conditions", "value": 99.5, "unit": "%"}]}]}
